The structures appear in SMILES notation. Values after ≈ are worked out from the molar mass of the structure shown. Active and inactive are the calls of the source. The calls are words filed in the database; no cut-off is given here.

Experiment [1] deals with Meloidogyne incognita. Nature of the experiment: Nematodexic activity against eggs of Meloidogyne incognita (root-knot nematode) assessed as mean corrected egg hatching inhibition rate at 25 to 400 ug/ml at 28 degC measured after 7 to 13 days by normal binocular microscopic analysis. The experiment is classed as functional.
For experiment [2], the system named is Panagrellus redivivus. The experiment is described as follows: Nematodexic activity against mixed juvenile and adult stages of Panagrellus redivivus assessed as disruption of internal structure, vacuole formation and residual empty somatocysts in the dead worm at 28 degC measured after 48 hr by normal binocular microscopic analysis. The experiment is classed as functional, organism-based.

The subject of experiment [3] is Panagrellus redivivus. The experiment is described as follows: Nematodexic activity against mixed juvenile and adult stages of Panagrellus redivivus assessed as mean corrected mortality rate at 28 degC measured after 48 hr by normal binocular microscopic analysis. It is filed as functional.
Experiment [4] has as its system Meloidogyne incognita. The experiment is described as follows: Nematodexic activity against Meloidogyne incognita (root-knot nematode) assessed as mortality at 500 mg/l after 96 hr. The experiment is classed as functional.

Turning to `CCC1O[C@]2(C)[C@@H](O)[C@H](/C=C/C=C/C=C/c3oc(=O)cc(OC)c3C)O[C@]1(C)[C@H]2O` (some centres undefined), the “inhibition (INH)” value in the experiment on Meloidogyne incognita [1] is on record as “<=5%”.

As to `COc1cc(=O)oc(/C=C/C=C/C=C/C2OC3(C)C([C@H](C)O)OC(C)(C2O)C3OC(C)=O)c1C` (some centres undefined) [AUROVERTIN D], in the experiment with Meloidogyne incognita [1], the “inhibition (INH)” value is listed as “<=5%”. The outcome in the experiment on Panagrellus redivivus [2] was Active. Further, the median lethal concentration (LC50) in the experiment with Panagrellus redivivus [3] turned out to be 41.7 µg/mL (≈ 87.5 µM). For `COc1cc(=O)oc(/C=C/C=C/C=C/C2OC3(C)C([C@H](C)O)OC(C)(C2O)C3O)c1C` (some centres undefined) [AUROVERTIN F] the same measures were “<=5%”, “Active” and 88.6 µg/mL (≈ 204 µM). On to `C/C=C/[C@@H]1OC(=O)C=C[C@@H]1O` [PHOMALACTONE], for which the mortality at 500 µg/mL in the experiment with Meloidogyne incognita [4] was 84%. In the case of `COc1cc(=O)oc(/C=C/C=C/C=C/[C@@H]2O[C@@]3(C)C(C)O[C@](C)([C@H]2O)[C@@H]3O)c1C` (some centres undefined), the “inhibition (INH)” value in the experiment with Meloidogyne incognita [1] was “<=5%”.

The term LC50 denotes the concentration that kills 50% of the test population. By mortality is commonly meant the percentage killed.
